Assay [1] deals with Methylococcus capsulatus CRL M1 NRRL B-11,219. Nature of the assay: Sec. alcohol oxidation by cell suspensions of methanol-grown cells. The assay is classed as cell-based. The note with it: sec. alcohol to methyl ketone.
The test system of assay [2] is Methylococcus capsulatus CRL 25 NRRL B-11,221. Described as above. The assay is classed as cell-based. The conditions noted are these: sec. alcohol to methyl ketone.
The subject of assay [3] is cell-free soluble extract of Methylococcus capsulatus CRL M1 (NRRL B-11,219). The conditions noted are these: NAD added. Here is the method: (§1) To prepare the cell-free secondary alcohol dehydrogenous (SADH) system, the washed cells were disrupted with a Wave Energy Ultrasonic Oscillator, Model W201 (Wave Energy System, Inc., Newtown, Pa.) and centrifuged at 20,000×g. for 30 minutes. […] The enzyme activity was measured with a fluorescence spectrophotometer (Perkin Elmer, Model MPF 44A) by following the formation of reduced NAD (EX 340 nm, Em 460 nm). The formation of reduced NAD was also followed with an absorption spectrophotometer at 340 nm. The assay system (3 ml.) contained: potassium phosphate buffer pH 7.0; 150 μmol.; NAD 1 μmol.; a given amount of enzyme preparation; and secondary alcohol 10 μmol. The reaction was started by the addition of substrate. One unit of enzyme activity represents the reduction of one μmole NAD per minute. Protein concentrations were determined by the Lowry method as referenced above.
(§2) The experimental procedure for the tests reported in Table XVII were as follows: 1 mg protein of crude extract was added into a 0.5 ml. 0.05 M phosphate buffer (pH 7.0) in a 10-ml. vial. […] The reaction mixture was incubated at 30° C. on a water bath. A 3 μl sample was removed with a syringe at 15 min. of incubation and was assayed with g.l.c. Catalytic activity was also assayed by fluorescence spectrophotometry.

The test system of assay [4] is cell-free soluble extract of Methylosinus trichosporium OB3b (NRRL B-11,196). The note with it: NAD added. Here is the method: as §1, §2
Assay [5] deals with cell-free soluble extract of Methylobacterium organophilium CRL 26 (NRRL B 11,222). The conditions noted are these: NAD added. Here is the method:
as §1, §2

For assay [6], the system named is purified secondary alcohol dehydrogenase from Pichia sp. NRRL Y-11,328. Nature of the assay: Substrate specificity, electron acceptor and stoichiometry of purified yeast SADH. The note with it: examined spectrophotometrically. Type of assay: biochemical.
The subject of assay [7] is Kloeckera sp. Strain A2 (NRRLY-11,420). Nature of the assay: Oxidation of sec-alcohols to ketones by cell suspensions of yeasts. Type of assay: cell-based. The note with it: sec-alcohol to methyl ketone.
The test system of assay [8] is cell extract of Kloeckera sp. strain A2 NRRL-Y-11,420. The experiment in a line: Oxidation of secondary alcohols to methylketone by cell extracts of yeasts. The assay is classed as biochemical.
The subject of a further assay is Pichia sp. NRRL-Y-11328. Nature of the assay: Oxidation of sec-alcohols to ketones by cell suspensions of yeasts. The assay is classed as cell-based. The conditions noted are these: sec-alcohol to methyl ketone.
In assay [9] the test system is Hansenula polymorpha ATCC 26012. Described as above. The assay is classed as cell-based. The conditions noted are these: sec-alcohol to methyl ketone.
The subject of assay [10] is Candida utilis ATCC 26387. Described as above. Type of assay: cell-based. The note with it: sec-alcohol to methyl ketone.
Assay [11] relates to methylotrophic microorganism strains of the present invention grown on methanol. The experiment in a line: Comparative test with methanol-grown washed cell suspensions. Type of assay: cell-based.
In assay [12] the test system is methane-grown strain Methylococcus capsulatus NRRL B-11,219. The experiment in a line: Effect of methane on the epoxidation of propylene by a cell suspension. The assay is classed as cell-based. The conditions noted are these: in the presence of methane. The text has this:
Both the epoxidation of the C2 -C4 1-alkenes and the hydroxylation of methane with the cell suspensions were inhibited by various metal-binding and metal-chelating agents, indicating the involvement of metal(s)-containing enzyme system(s). […] The epoxidation of propylene to propylene oxide by a cell suspension of methane-grown strain Methylococcus capsulatus NRRL B-11,219 was inhibited (50%) in the presence of the hydroxylation substrate, methane (Table XV). […] It is likely that the methane mono-oxygenase enzyme system catalyzes both the epoxidation of alkene and the hydroxylation of methane. May and Abbott publications, supra, have reported that the ω-hydroxylation system from Pseudomonas oleovorans catalyzed both the epoxidation of 1-octene and the hydroxylation of n-octane.

The subject of assay [13] is cell-free particulate fractions derived from the methylotrophic microorganisms. The experiment in a line: Inhibition of conversion of C3 -C6 n-alkanes to sec. alcohols. The assay is classed as biochemical. The conditions noted are these: oxygen and NADH present. From the text:
The conditions for preparing the cell suspensions or the cell-free particulate fractions from methane-grown methylotroph microorganisms is the same as described above.

Like-named read-outs stand apart in the source and are kept apart here.

Turning to `CCC(C)O` (stereo not shown) [2-Butanol], the “Conversion Rates” value turned out to be 2.0 μmoles/hr/mg protein in [1] and 0.95 μmoles/hr/mg protein in [2]. For the same compound, the “Conversion Rate 2-butanol to 2-butanone” value in assay [3] (growth substrate CH3 OH) was determined as 2.0 nmoles/min/mg protein; in assay [3] (growth substrate CH4) it was 3.2 nmoles/min/mg protein; in [4] (growth substrate CH3 OH), 2.4 nmoles/min/mg protein; in assay [4] (growth substrate CH4), 4.5 nmoles/min/mg protein; in [5] (growth substrate CH3 OH), 2.5 nmoles/min/mg protein; in assay [5] (growth substrate CH4), 1.8 nmoles/min/mg protein. Further, the “oxidation by the purified enzyme” value in assay [6] is recorded as “catalyzed the oxidation”. The “Conversion Rate” value in assay [7] (growth substrate Ethanol) is recorded as 5.7 μmoles/hr/mg of protein; in [7] (growth substrate Methanol) it was 5.9 μmoles/hr/mg of protein; in assay [7] (growth substrate Methylamine) it was 5.4 μmoles/hr/mg of protein; in [7] (growth substrate Methylformate), 5.9 μmoles/hr/mg of protein; in assay [7] (growth substrate Propylamine), 4.2 μmoles/hr/mg of protein; in assay [8] (methanol-grown, cell extract + NAD^+, sec. alcohol to methyl ketone, gas chromatography), 5.9 μmoles/hr/mg Protein. Besides, the “Conversion Rate” value with Pichia sp. NRRL-Y-11328 (growth substrate Ethanol) was 6.2 μmoles/hr/mg of protein; in the assay with Pichia sp. NRRL-Y-11328 (growth substrate Methanol) it was 6.8 μmoles/hr/mg of protein; in the assay on Pichia sp. NRRL-Y-11328 (growth substrate Methylamine) it was 5.1 μmoles/hr/mg of protein; in the assay on Pichia sp. NRRL-Y-11328 (growth substrate Methylformate), 6.9 μmoles/hr/mg of protein; in the assay with Pichia sp. NRRL-Y-11328 (growth substrate Propylamine), 2.1 μmoles/hr/mg of protein; in assay [9] (growth substrate Ethanol) it was 4.8 μmoles/hr/mg of protein. The “Conversion Rate” value is 5.8 μmoles/hr/mg of protein in assay [9] (growth substrate Methanol); 4.5 μmoles/hr/mg of protein in [9] (growth substrate Methylamine); 5.2 μmoles/hr/mg of protein in assay [9] (growth substrate Methylformate); 4.0 μmoles/hr/mg of protein in assay [9] (growth substrate Propylamine); 5.2 μmoles/hr/mg of protein in [10] (growth substrate Ethanol); 6.8 μmoles/hr/mg of protein in assay [10] (growth substrate Methanol). Moreover, the “Conversion Rate” value in [10] (growth substrate Methylamine) is on record as 5.0 μmoles/hr/mg of protein; in [10] (growth substrate Methylformate) it was 6.2 μmoles/hr/mg of protein; in assay [10] (growth substrate Propylamine) it was 4.2 μmoles/hr/mg of protein. Also, the specific activities in assay [8] (2-butanol as a substrate, spectrophotometrically) is recorded as 90 nmoles NAD^+ reduced per min. per mg. protein.

Regarding `C` [Methane], the “hydroxylation / epoxidation ability” value in assay [11] is “did not possess the ability”. In addition, the “inhibition of the epoxidation of propylene to propylene oxide” value in assay [12] came out at 50%.

On to `C=CC` [Propylene], for which, in assay [13], the “inhibition of conversion of n-alkanes to sec. alcohols” value is on record as “inhibited”.
